From patent US20120122931A1, “INDOLE DERIVATIVE OR PHARMACEUTICALLY ACCEPTABLE SALT THEREOF” (KISSEI PHARMACEUTICAL CO., LTD., priority 2009, published 2012) come the findings set out here.

The target in one test is T1, rat EP1 receptor (Rattus norvegicus, UniProt P70597).
T1 construct: expressed in transfected cells; host or cells: COS-1 cells, transient transfection with Lipofectamine 2000
T1 sequence (P70597 1-405): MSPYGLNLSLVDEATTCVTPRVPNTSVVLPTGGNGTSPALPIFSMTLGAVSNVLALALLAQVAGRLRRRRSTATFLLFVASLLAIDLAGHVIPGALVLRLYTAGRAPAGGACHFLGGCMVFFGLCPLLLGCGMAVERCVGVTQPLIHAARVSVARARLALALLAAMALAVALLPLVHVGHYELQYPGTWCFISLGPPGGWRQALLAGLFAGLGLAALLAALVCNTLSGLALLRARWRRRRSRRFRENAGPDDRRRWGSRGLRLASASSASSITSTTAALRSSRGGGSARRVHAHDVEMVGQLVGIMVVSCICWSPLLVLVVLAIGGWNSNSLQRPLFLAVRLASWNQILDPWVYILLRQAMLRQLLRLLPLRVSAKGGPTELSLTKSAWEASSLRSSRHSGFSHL
Briefly: Test for confirmation of EP1 receptor antagonism: inhibition of prostaglandin E2-induced increase in intracellular calcium concentration (Method A or Method B). The conditions noted are these: Method A (Fluo-4 NW, FlexStation); rat EP1 receptor-expressing cells; prostaglandin E2 10 nM. It counts as cell-based. The procedure:
(1) Preparation of Rat EP1 Expression vector
Using Rat Kidney BD Marathon-Ready cDNA (Nippon Becton Dickinson Company, Ltd.) as a template, a forward primer shown in SEQ ID NO. 1, and a reverse primer shown in SEQ ID NO. 2, a first run of PCR was carried out using KOD-Plus-Ver 2.0 (Toyobo Co., Ltd.). Further, using this amplification product as a template, a forward primer shown in SEQ ID NO. 3, and a reverse primer shown in SEQ ID NO. 4, a second run of PCR was carried out in the same manner. The amplification product obtained by the second run of PCR was incorporated into a vector (pcDNA3.1 D/V5-His-TOPO (registered trademark), Invitrogen Japan K. K.). By a conventional method, the vector containing this amplification product was introduced to E. coli (One Shot TOP10 Competent Cells, Invitrogen Corporation) to transform. This transformed E. coli was cultured in an LB agar medium for one day. After the culture, colonies were selected and cultured in an LB liquid medium containing 50 μg/mL of ampicillin. After the culture, the vector was purified using a QIAprep Spin Miniprep Kit (Qiagen K. K.). The base sequence of the insertion site of this vector (SEQ ID NO. 5) was compared with the rat EP1 base sequence (Ptger1) registered as an accession number NM_013100 in well-known database (NCBI), and as a result, they all matched except for a single base. Further, the amino acid sequence translated by the base sequence completely matched the amino acid sequence of the rat EP1 receptor registered as an NCBI accession number NP_037232. Therefore, it was confirmed that the cloned gene sequence was a base sequence of the rat EP1 receptor and the obtained amino acid sequence was that of the rat EP1 receptor. The pcDNA3.1 D/V5-His-TOPO (registered trademark) to which the nucleic acid shown in SEQ ID NO. 5 had been inserted was taken as a rat EP1-expressing vector.
(2) Preparation of Rat EP1 Receptor-Expressing Cells
COS-1 cells (Dainippon Sumitomo Pharma Co., Ltd.) were cultured until it reached confluence in an incubator at 37° C. under a 5% CO2 gas condition, using a D-MEM liquid medium (high glucose and L-glutamine contained, Invitrogen Corporation) to which a penicillin-streptomycin solution (Invitrogen Corporation, final concentration: 100 U/mL as benzylpenicillin; 100 μg/mL as streptomycin) as an antibiotic, MEM nonessential amino acids (Invitrogen Corporation, final Concentration: 0.1 mM), and fetal calf serum (Sanko Junyaku Co., Ltd., final concentration: 10%) were added.
(2-2) COS-1 Cell Subculture
The cells that had reached confluence were stripped with 0.05% trypsin/0.53 mM EDTA 4Na (Invitrogen Japan K. K.) and resuspended in the above liquid medium. The resuspended cells were diluted and cultured in the above liquid medium at a spread ratio from 1:4 to 1:8.
(2-3) Preparation of Cells for Introduction of Rat EP1-Expressing Vector
The cells that had reached confluence were stripped with 0.05% trypsin/0.53 mM EDTA.4Na, and resuspended in a D-MEM liquid medium (high glucose and L-glutamine contained, Invitrogen Corporation) to which an MEM nonessential amino acid (final concentration: 0.1 mM) and fetal calf serum (final concentration: 10%) were added. In each well of a Poly D-lysine-coated 96-well microplate (BD BioCoat (registered trademark), Nippon Becton Dickinson Company, Ltd.), this resuspended cell suspension culture was prepared to be 5×10^4 cells/well in 100 μL of the liquid medium, and seeded thereon. After seeding, the cells were cultured in an incubator at 37° C. under a 5% CO2 gas condition. At a point when the cells for introduction of a rat EP1-expressing vector were adhered (about 2 hours after seeding), introduction of the rat EP1-expressing vector was carried out in the following order.
(2-4) Introduction of Rat EP1-Expressing Vector
For introduction of the rat EP1-expressing vector, Lipofectamine 2000 (Invitrogen Japan K. K.) was used. […]
For orientation: IC50 means the concentration that inhibits the measured activity by half. Take `COc1ccc2c(Cc3cccc(C(=O)O)c3)c(-c3ccsc3)[nH]c2c1` [Example 4-12, 3-(6-methoxy-2-thiophen-3-yl-1H-indol-3-ylmethyl)benzoic acid]: the IC50 was determined as 40 nM.
For the compound `O=C(O)c1cccc(Cc2c(-c3ccccc3)[nH]c3cc(Cl)ccc23)n1` [Example 4-17, 6-(6-chloro-2-phenyl-1H-indol-3-ylmethyl)pyridine-2-carboxylic acid], the IC50 was 15 nM.
As to `CCc1ccc2c(Cc3cccc(C(=O)O)n3)c(-c3ccccc3)[nH]c2c1` [Example 4-27], the IC50 was 28 nM.
Still for that read-out and setting: the figure for `CCOc1ccc2c(Cc3cccc(C(=O)O)n3)c(-c3ccccc3)[nH]c2c1` [Example 4-34, 6-(6-ethoxy-2-phenyl-1H-indol-3-ylmethyl)pyridine-2-carboxylic acid] is 44 nM; for `Cc1ccc2c(Cc3cccc(C(=O)O)n3)c(-c3ccccc3)[nH]c2c1` [Example 4-35, 6-(6-methyl-2-phenyl-1H-indol-3-ylmethyl)pyridine-2-carboxylic acid] it is 18 nM; for `O=C(O)c1cccc(Cc2c(-c3ccccc3)[nH]c3cc(C(F)(F)F)ccc23)n1` [Example 11-3] it is 42 nM.
In the case of `COc1ccc2c(Cc3cccc(C(=O)O)n3)c(-c3cccc(Cl)c3)[nH]c2c1` [Example 11-21, 6-[2-(3-chlorophenyl)-6-methoxy-1H-indol-3-ylmethyl]pyridine-2-carboxylic acid], the IC50 stood at 23 nM.

The same test, now with this note: Method B (Calcium kit II Fluo 4, FDSS 7000); rat EP1 receptor-expressing cells; prostaglandin E2 10 nM.
Turning to `CC(C)Cc1cn(-c2cccc(C(=O)O)n2)c2cc(Cl)ccc12` [Comparative Example, sodium 6-(6-chloro-3-isobutylindol-1-yl)pyridine-2-carboxylate, reference compound], the IC50 turned out to be 476 nM.
Same read-out and setting: the same measure for `COc1ccc2c(Cc3cccc(C(=O)O)n3)c(-c3ccoc3)[nH]c2c1` [Example 11-10, 6-(2-furan-3-yl-6-methoxy-1H-indol-3-ylmethyl)pyridine-2-carboxylic acid]: 15 nM; for `COc1ccc2c(Cc3cccc(C(=O)O)n3)c(-c3cccnc3)[nH]c2c1` [Example 11-11, 6-(6-methoxy-2-pyridin-3-yl-1H-indol-3-ylmethyl)pyridine-2-carboxylic acid]: 32 nM; for `COc1ccc2c(Cc3cccc(C(=O)O)n3)c(-c3ccc(F)cc3)[nH]c2c1` [Example 11-13, 6-[2-(4-fluorophenyl)-6-methoxy-1H-indol-3-ylmethyl]pyridine-2-carboxylic acid]: 31 nM.
Still for that read-out and setting: the figure for `COc1ccc2c(Cc3cccc(C(=O)O)c3)c(-c3ccoc3)[nH]c2c1` [Example 11-15, 3-(2-furan-3-yl-6-methoxy-1H-indol-3-ylmethyl)benzoic acid] is 48 nM; for `COc1ccc2c(Cc3cccc(C(=O)O)n3)c(-c3cccs3)[nH]c2c1` [Example 11-17, 6-(6-methoxy-2-thiophen-2-yl-1H-indol-3-ylmethyl)pyridine-2-carboxylic acid] it is 50 nM; for `COc1ccc2c(Cc3cccc(C(=O)O)n3)c(-c3cncs3)[nH]c2c1` [Example 11-24, 6-(6-methoxy-2-thiazol-5-yl-1H-indol-3-ylmethyl)pyridine-2-carboxylic acid] it is 41 nM.
For `COc1cccc(-c2[nH]c3cc(OC)ccc3c2Cc2cccc(C(=O)O)n2)c1` [Example 11-34, 6-[6-methoxy-2-(3-methoxyphenyl)-1H-indol-3-ylmethyl]pyridine-2-carboxylic acid], the IC50 is 36 nM.
On the same count and under the same terms, the same measure for `COc1ccc2c(Cc3nc(C(=O)O)cs3)c(-c3ccccc3)[nH]c2c1` [Example 11-37]: 50 nM; for `COc1ccc2c(Cc3cccc(C(=O)O)n3)c(-c3ccc(F)c(F)c3)[nH]c2c1` [Example 16-2, 6-[2-(3,4-difluorophenyl)-6-methoxy-1H-indol-3-ylmethyl]pyridine-2-carboxylic acid]: 23 nM.
For `COc1ccc2c(Cc3cccc(C(=O)O)n3)c(-c3cc(F)c(F)c(F)c3)[nH]c2c1` [Example 16-6, 6-[6-methoxy-2-(3,4,5-trifluorophenyl)-1H-indol-3-ylmethyl]pyridine-2-carboxylic acid], the IC50 was 44 nM.
For the compound `O=C(O)c1cccc(Cc2c(-c3ccccc3)[nH]c3cc(C4CC4)ccc23)n1` [Example 16-8, 6-(6-cyclopropyl-2-phenyl-1H-indol-3-ylmethyl)pyridine-2-carboxylic acid], the IC50 worked out at 32 nM.
As to `COc1ccc2c(Cc3cccc(C(=O)O)c3F)c(-c3ccccc3)[nH]c2c1` [Example 16-9, 2-fluoro-3-(6-methoxy-2-phenyl-1H-indol-3-ylmethyl)benzoic acid], the IC50 came to 41 nM.
On the same count and under the same terms, the same measure for `COc1ccc2c(Cc3cccc(C(=O)O)n3)c(-c3cncc(F)c3)[nH]c2c1` [Example 16-11, 6-[2-(5-fluoropyridin-3-yl)-6-methoxy-1H-indol-3-ylmethyl]pyridine-2-carboxylic acid]: 27 nM.
With `COc1cc2[nH]c(-c3ccccc3)c(Cc3cccc(C(=O)O)n3)c2cc1C` [Example 16-12, 6-(6-methoxy-5-methyl-2-phenyl-1H-indol-3-ylmethyl)pyridine-2-carboxylic acid], the IC50 turned out to be 23 nM.
For the compound `COc1cc2[nH]c(-c3ccccc3)c(Cc3cccc(C(=O)O)n3)c2cc1Cl` [Example 16-13, 6-(5-chloro-6-methoxy-2-phenyl-1H-indol-3-ylmethyl)pyridine-2-carboxylic acid], the IC50 worked out at 36 nM.
Still for that read-out and setting: the same measure for `COc1cc2[nH]c(-c3ccccc3)c(Cc3cccc(C(=O)O)n3)c2cc1F` [Example 16-16, 6-(5-fluoro-6-methoxy-2-phenyl-1H-indol-3-ylmethyl)pyridine-2-carboxylic acid]: 25 nM; for `COc1ccc2c(Cc3ccc(F)c(C(=O)O)c3)c(-c3ccccc3)[nH]c2c1` [Example 16-18, 2-fluoro-5-(6-methoxy-2-phenyl-1H-indol-3-ylmethyl)benzoic acid]: 30 nM; for `Cc1ccc2c(Cc3cccc(C(=O)O)n3)c(-c3ccsc3)[nH]c2c1` [Example 16-21, 6-(6-methyl-2-thiophen-3-yl-1H-indol-3-ylmethyl)pyridine-2-carboxylic acid]: 24 nM.
Still for that read-out and setting: the same measure for `COc1cc2c(Cc3cccc(C(=O)O)n3)c(-c3ccccc3)[nH]c2cc1Cl` [Example 16-23, 6-(6-chloro-5-methoxy-2-phenyl-1H-indol-3-ylmethyl)pyridine-2-carboxylic acid]: 34 nM; for `COc1cc2[nH]c(-c3ccsc3)c(Cc3cccc(C(=O)O)n3)c2cc1C` [Example 16-24, 6-(6-methoxy-5-methyl-2-thiophen-3-yl-1H-indol-3-ylmethyl)pyridine-2-carboxylic acid]: 22 nM.
